Laboratory results published in paper PMC9652372, “Glycolytic flux control by drugging phosphoglycolate phosphatase” (Nature Communications, 2022).
Residue numbers refer to the chain shown, from its start. “And” between values parts separate entries of the source, which are not always exact repeats. Identical values can stand only once.

Assays:
murine PGP-P127E = target: T1, murine PGP-P127E (Mus musculus, UniProt Q8CHP8, P127E); experiment: Isothermal titration calorimetry, PGP-P127E; assay type: binding; settings: ITC
T1 construct: His6 (N, cleaved yes); made in house; host or cells: Escherichia coli BL21 (DE3), pETM-11
T1 sequence (Q8CHP8 1-321 P127E): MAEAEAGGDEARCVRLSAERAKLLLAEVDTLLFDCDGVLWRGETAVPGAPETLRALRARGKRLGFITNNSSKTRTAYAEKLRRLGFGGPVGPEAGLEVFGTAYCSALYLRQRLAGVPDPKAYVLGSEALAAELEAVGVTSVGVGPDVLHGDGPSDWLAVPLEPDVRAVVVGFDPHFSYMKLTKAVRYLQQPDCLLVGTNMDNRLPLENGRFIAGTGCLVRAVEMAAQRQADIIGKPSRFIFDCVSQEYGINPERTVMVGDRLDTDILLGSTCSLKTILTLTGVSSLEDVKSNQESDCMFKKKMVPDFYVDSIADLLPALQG
Experimental: Purified murine PGP-WT or PGP-P127E was dialyzed overnight against ITC buffer (30 mM HEPES, 30 mM NaCl, 5 mM MgCl2, 1 mM tris(2-carboxyethyl)phosphine/TCEP; pH 7.5). All calorimetric measurements were performed at 25 °C on an ITC200 microcalorimeter (GE Healthcare). Experiments were conducted with a fixed concentration of 2% DMSO. […] To reduce the effects of ligand leakage from the syringe during baseline equilibration, the heat release of a single 1.2 μL injection was recorded prior to the actual titration experiment, and discarded during data analysis with Nitpic 2.0.7[45]. To determine background heats of dilution, control experiments of ligand into buffer, buffer into protein and buffer into buffer titrations were performed.

[1] = target: T2, murine PGP-WT / PGP-C297S (Mus musculus, UniProt Q8CHP8); experiment: Size-exclusion chromatography, PGP self-association; settings: SEC, PGP-WT 30 µM; CP1 100 µM
T2 construct: His6 (N, cleaved yes); made in house; host or cells: Escherichia coli BL21 (DE3)
T2 sequence (Q8CHP8 1-321): T1 sequence (Q8CHP8 1-321 P127E) with E127P
Experimental: (§1) A volume of 900 µL was loaded onto a Superdex 200 10/300GL (Cytiva) size exclusion chromatography column operated on an ÄKTA liquid chromatography system.
(§2) Error bars not shown are hidden by the symbols. (c) PGP self-association in the absence or presence of CP1. Size- exclusion chromatography (SEC) of purified, recombinant murine PGP-WT in comparison to PGP-C297 […]
(§3) (1 picture or pasted object on this page, not shown here)
(§4) (100 µM). SEC profiles of PGP -WT are the mean of n=3 independent experiments; PGP -C297S […]
(§5) independent experiments. Statistical testing was done using a two-sided t-test, and the p- value

[2] = target: T3, murine PGP-WT / PGP-C297S (Mus musculus, UniProt Q8CHP8, C297S); experiment: as above; settings: SEC; 100 µM CP1
T3 construct: His6 (N, cleaved yes); made in house; host or cells: Escherichia coli BL21 (DE3)
T3 sequence (Q8CHP8 1-321 C297S): T1 sequence (Q8CHP8 1-321 P127E) with E127P, C297S
Experimental: as §1, §2, §3, §4, §5

PGP^172FDPH>YDEQ = target: T4, PGP^172FDPH>YDEQ (Mus musculus, UniProt Q8CHP8, F172Y/H175Q/P174E); settings: read-out: enzyme activity in presence of CP1 relative to DMSO control (1), mPGP-172FDPH>172YDEQ
T4 sequence (Q8CHP8 1-321 F172Y/P174E/H175Q): T1 sequence (Q8CHP8 1-321 P127E) with E127P, F172Y, P174E, H175Q

murine PGP [3] = target: T5, murine PGP (Mus musculus, UniProt Q8CHP8); experiment: IC50 determination, murine PGP, 4-phosphoerythronate (4PE) dephosphorylation; settings: for M.m PGP on 4-Phosphoerythronate: activity, control = 100
T5 sequence (Q8CHP8 1-321): T1 sequence (Q8CHP8 1-321 P127E) with E127P

murine PGP [4] = target: T5, murine PGP; experiment: IC50 determination, murine PGP, glycerol 3-phosphate (G3P) dephosphorylation (EnzChek)

## O=C(Nc1ccccc1C(=O)O)c1ccc(Oc2ccc(C(=O)Nc3ccccc3C(=O)O)cc2)cc1 [CP1]
Murine PGP-P127E
  n, stoichiometry: 1.15 ± 0.04
Murine PGP-P127E; […]
  Kd: 11900 ± 410 nM
[1]
  max. peak height of PGP tetramer/PGP total: 0.166 and 0.138 and 0.1887
[2]
  effect on PGP^C297S self-association: did not affect
PGP^172FDPH>YDEQ; CP1 log[M] -4.80, Exp #1-#3
  remaining activity at 15.85 µM: 82%
PGP^172FDPH>YDEQ; CP1 log[M] -5.10, Exp #1-#3
  remaining activity at 7.943 µM: 88%
PGP^172FDPH>YDEQ; CP1 log[M] -5.40, Exp #1-#3
  remaining activity at 3.981 µM: 86%
PGP^172FDPH>YDEQ; CP1 log[M] -5.70, Exp #1-#3
  remaining activity at 1.995 µM: 98%
PGP^172FDPH>YDEQ; CP1 log[M] -6.00, Exp #2-#3
  remaining activity at 1 µM: 97%
PGP^172FDPH>YDEQ; CP1 log[M] -6.30, Exp #1-#3
  remaining activity at 0.5012 µM: 88%
PGP^172FDPH>YDEQ; CP1 log[M] -6.60, Exp #1-#3
  remaining activity at 0.2512 µM: 92%
PGP^172FDPH>YDEQ; CP1 log[M] -6.90, Exp #1-#3
  remaining activity at 0.1259 µM: 86%
Murine PGP [3]
  IC50: 440 ± 60 nM
Murine PGP [3]; CP1 log[M] -5.34679
  M.m PGP on 4-Phosphoerythronate: 4.5082 and 7.8838 and 6.1475
Murine PGP [3]; CP1 log[M] -5.94885
  M.m PGP on 4-Phosphoerythronate: 24.5902 and 29.0456 and 23.7705
Murine PGP [3]; CP1 log[M] -6.24988
  M.m PGP on 4-Phosphoerythronate: 43.8525 and 48.1328 and 39.3443
Murine PGP [3]; CP1 log[M] -6.55091
  M.m PGP on 4-Phosphoerythronate: 54.0984 and 64.3154 and 65.9836
Murine PGP [3]; CP1 log[M] -6.85194
  M.m PGP on 4-Phosphoerythronate: 70.4918 and 82.5726 and 78.6885
Murine PGP [4]
  IC50: 1040 ± 80 nM
Murine PGP [4]; read-out: M.m PGP on G3P, activity, control = 100, CP1 log[M] -5.09691
  remaining activity at 8 µM: 13.8%
Murine PGP [4]; read-out: M.m PGP on G3P, activity, control = 100, CP1 log[M] -5.39794
  remaining activity at 4 µM: 19.5%
Murine PGP [4]; read-out: M.m PGP on G3P, activity, control = 100, CP1 log[M] -5.69897
  remaining activity at 2 µM: 32.5%
Murine PGP [4]; read-out: M.m PGP on G3P, activity, control = 100, CP1 log[M] -6
  remaining activity at 1 µM: 53.8%
Murine PGP [4]; read-out: M.m PGP on G3P, activity, control = 100, CP1 log[M] -6.30103
  remaining activity at 0.5 µM: 80%
Murine PGP [4]; read-out: M.m PGP on G3P, activity, control = 100, CP1 log[M] -6.60206
  remaining activity at […]: 91.2%
Murine PGP [4]; read-out: M.m PGP on G3P, activity, control = 100, CP1 log[M] -6.90309
  remaining activity at 0.125 µM: 96.2%
Murine PGP [4]; read-out: M.m PGP on G3P, activity, control = 100, CP1 log[M] -7.20412
  remaining activity at 0.0625 µM: 98.8%
Murine PGP [4]; read-out: M.m PGP on G3P, activity, control = 100, CP1 log[M] -7.50515
  remaining activity at 0.03125 µM: 91.2%
